# Entries after “also recorded” stand apart in the source; their conditions may differ.
# Tests used:
# [1] = system: OVA; assay: Antibody response to endotoxin-free OVA injected intradermally followed by topical DBP; format: in vivo, B6 mice; settings: endotoxin-free OVA i.d. followed by topical DBP
# Text: (§1) The cutaneous lymphoid stress response bears a strong resemblance to the effects of topical DBP. DBP is required for the induction of contact hypersensitivity to FITC in mice, a form of allergic response. Topical DBP induces the migration of Langerhans cells from the epidermis to draining lymph nodes. And, topical DBP acts as an adjuvant for antigens injected into the skin, including endotoxin-free OVA. One might expect, therefore, that topical DBP would cause the same effects as tape stripping or occlusive skin patch immunization. To our surprise, none of the effects that characterize the DETC-dependent cutaneous lymphoid stress-surveillance response are found in the response to DBP.
# [2] = system: tumor; parameters: species or system mice; settings: mouse, in vivo
# [3] = system: skin; assay: Skin histology after multiple topical applications of DBP; settings: multiple topical doses
# [4] = system: ear skin; assay: Cutaneous lymphoid stress response gene expression after topical DBP on ear skin; format: in vivo; settings: ear skin of C57B1/6 mice
# Text: as §1
# [5] = system: dendritic cells; assay: 48 hr response of wild-type and Caspase-1−/− mice to topical FITC+DBP (flow cytometry of draining lymph node); format: in vivo; settings: vs wild-type
# Procedure: We also tested the relevance of a second dendritic cell activation system that intersects with TLR, the NALP inflammasome (reviewed in Franchi, L. et al. 2009 “The inflammasome: a Caspase-1-activation platform that regulates immune responses and disease pathogenesis” Nature Immunology 10:241-247).
# Mice were treated topically on the shaved abdominal skin with FITC dissolved in acetone (5 mg/ml) combined with an equal volume of DBP. Two days later, the skin draining inguinal lymph node cells were stained for immunofluorescent flow cytometry using monoclonal antibodies specific for CD19, CD11c, CD40, I-Ab, CD80, and CD86 obtained from BD Pharmingen, and detected using a Becton Dickenson FACSCalibur followed by analysis of the data using FlowJo software.
# [6] = system: Fluzone; parameters: species or system mice; settings: mouse, in vivo
compound,measurement,setting,value
"CCCCOC(=O)c1ccccc1C(=O)OCCCC [DBP, dibutylphthalate]",antigen-specific IgE,[1],undetectable
same,antigen-specific IgG1 antibodies,[1],significantly elevated
same,antigen-specific IgG2b antibodies,[1],significantly elevated
same,antigen-specific IgG2c antibodies,[1],significantly elevated
same,tumor-specific immunity,[2],Protective and therapeutic tumor-specific immunity were induced
same,histologic evidence of inflammation in the skin,[3],no histologic evidence of inflammation
same,expression of H60a,[4],no statistically significant increase
same,expression of Il-13,[4],no statistically significant increase
same,expression of Il-25,[4],no statistically significant increase
same,expression of KLrk1 (encodes NKG2D),[4],no statistically significant increase
same,expression of Rae-1,[4],no statistically significant increase; also recorded: actually diminished
same,dendritic cell response in Casp−/− mice,[5],undiminished
same,IgA Ab in bronchoalveolar lavage,[6],highly significantly increased
same,"IgA Ab in bronchoalveolar lavage, persistence",[6],remained undiminished
same,Serum antibodies of all IgG isotypes,[6],highly significantly increased
